Article PMC4985751, “Enhanced Cationic Charge is a Key Factor in Promoting Staphylocidal Activity of α-Melanocyte Stimulating Hormone via Selective Lipid Affinity” (Scientific Reports, 2016)

Columns and labels:
[1] = RP-HPLC elution, % hydrophobicity; type: physicochemical; settings: chromatographic, C18 column
Text: A balance between hydrophobicity and cationic charge has been reported to be crucial for the activity of many membrane active CAMPs[39][40][41]. […] For α-MSH it has been shown that the minimum energy conformation is a β-turn which is present in the middle of the sequence spanning the putative message region (residues 6–9)[42]. […] Although, acquisition of secondary structure in the vicinity of phospholipid bilayers has been reported to be crucial for activity, there are examples where no direct correlation between peptide structure acquisition ability and antibacterial activity was observed.

MSSA ATCC 29213 [2] = assay: 2 h killing assay (colony count), MSSA; type: cell-based, Staphylococcus aureus; settings: 10 μM peptide, 37 °C, 10^7 CFU/mL MSSA ATCC 29213, 5 mM HEPES, 20 mM glucose, pH 7.4, mean ± S.D. of three independent experiments
Procedure: (§1) To determine the antibacterial activity, cells (MSSA ATCC 29213 and MRSA ATCC 33591) from secondary culture mid-logarithmic phase were used. The cells were centrifuged, washed and re-suspended in buffer (5 mM HEPES, 20 mM glucose, pH 7.4). The re-suspended cells were adjusted to OD600 of 0.5 spectrophotometrically (~10^8 CFU/mL). Desired cell densities were then exposed to 10 μM concentration of α-MSH and other analogues and incubated at 37 °C for 2 h. After 2 h incubation, the cells were diluted in buffer and small aliquots were plated on BHI agar plates. The plates were incubated overnight at 37 °C. Survival was determined by counting of the colony forming unit (CFU/mL) on agar plate using the following formula[23]: […]

MRSA ATCC 33591 = assay: 2 h killing assay (colony count), MRSA; type: cell-based, Staphylococcus aureus; settings: 10 μM peptide, 37 °C, 10^6 CFU/mL MRSA ATCC 33591, 5 mM HEPES, 20 mM glucose, pH 7.4, mean ± S.D. of three independent experiments
Procedure: as §1

[3] = system: B16 mouse melanoma cells stably expressing human melanocortin receptor MC1R; assay: Cyclic-AMP accumulation analysis; type: cell-based; settings: 600 nM, 1 μM and 10 μM peptide, 10 min
Procedure: The intracellular cyclic-AMP analysis was performed according to a method described elsewhere, with slight modifications. Briefly, B16 mouse melanoma cells stably expressing human melanocortin receptor MC1R were grown to confluence in DMEM medium (Sigma-Aldrich, USA) containing 10% fetal calf serum (FCS) and 1x anti-anti (Gibco). The cells were seeded in 12-well plates 48 h before assay and grown to 10^5 cells/well. For the assay, the medium was removed and cells were washed with 1 mL of media. Then 1 mL DMEM media (without FCS) containing 100 μM 3-isobutyl-1-methylxanthine (IBMX) was added to each well and incubated for 30 min at 37 °C. The media was then discarded and various concentrations of α-MSH and KKK-MSH viz., 600 nM, 1 μM and 10 μM, in 1 mL fresh 25% DMEM media (without FCS) in PBS containing 100 μM IBMX were added to the appropriate wells and incubated for 10 min at 37 °C, 5% CO2. After 10 min the reaction was stopped by aspirating the media and washing the wells with 1 mL PBS. 200 μL 0.1 M hydrochloric acid was then added to each well and the wells were scrapped. The lysates were centrifuged at 600 rcf for 5 min and the supernatants were collected and diluted 1000 times in 0.1 M HCl and used for analysis of the total cyclic-AMP content using Enzyme Immunoassay Kit (Sigma-Aldrich, USA, CA200) according to the manufacturer’s instructions.

MSSA ATCC 29213 [4] = type: cell-based, Staphylococcus aureus; settings: at 10.47 μM peptide; thereafter marginal increase up to 41.2 μM
Procedure: The cytoplasmic membrane depolarization was measured using membrane potential sensitive cyanine dye DiSC3(5)[57]. Briefly, mid-logarithmic phase MSSA ATCC 29213 cells were washed and re-suspended in buffer (5 mM HEPES, 20 mM glucose, pH 7.2) to an OD600 of 0.05 which corresponds to ~10^7 CFU/mL. Cells were divided into aliquots and incubated with 2 μM of DiSC3(5) for 1 h to get steady baseline fluorescence intensity. The dye-loaded cells were treated with increasing peptide concentrations (2.1 μM, 10.47 μM, 20.83 μM and 41.23 μM). Fluorescence was monitored in a Shimadzu RF-5301 PC spectrofluorimeter at an excitation wavelength of 622 nm and an emission wavelength of 670 nm. The corresponding killing was measured by plating the aliquots onto BHI agar plate to obtain viable bacterial counts.

MSSA ATCC 29213 [5] = assay: Membrane permeabilization, PI uptake by flow cytometry; type: cell-based, Staphylococcus aureus; settings: 10 μM peptide, 1 h, 37 °C, 10^5 CFU/mL in PBS pH 7.4; >10 a.u. counted positive; mean ± S.D. of three independent experiments
Procedure: The propidium iodide (PI) uptake assay was performed to assess membrane permeabilization by flow cytometry according to a method described elsewhere[58]. MSSA ATCC 29213 cells were grown in BHI broth to mid-logarithmic phase and harvested by centrifugation at 4,000 rpm for 10 min. The cell pellet was washed once with PBS (10 mM sodium phosphate, 150 mM NaCl, pH 7.4) and was adjusted to 10^5 CFU/mL in PBS. The cells were incubated with PI (1.3 μg/mL) at 37 °C for 20 min in the dark. After incubating the cells with PI, cells were exposed to peptides (10 μM) at 37 °C. PI fluorescence was measured after 1 h incubation with excitation and emission wavelength of 544 nm and 620 nm, respectively, using Becton Dickinson (BD) FACS verse, San Jose, CA. The cells having more than 10 fluorescence unit (arbitrary) were considered to be stained with PI.

[6] = Lipid binding by Trp fluorescence titration
Procedure: Further, we evaluated the relative binding constants of α-MSH and KKK-MSH to bacterial mimic SUVs to understand if there are differences between lipid binding affinities of these two peptides. Towards this, we incubated a fixed concentration of peptide (12.5 μM) with increasing concentrations of bacterial mimic SUVs (DMPC:DMPG, 7:3, w/w) and concomitant changes in the intensity of emission maxima for Trp residue were recorded. Correction for light scattering was done by subtracting the corresponding spectra of the SUVs alone. […]
Figure 7 Trp fluorescence studies to estimate binding of α-MSH and KKK-MSH to bacterial mimic SUVs. Increasing concentrations of DMPC:DMPG (7:3, w/w) SUVs in 10 mM TES buffer (pH 7.2) were titrated with fixed peptide concentration (12.5 μM) and the emission spectrum was recorded. […] The fluorescence spectrum was recorded at 25 °C by exciting samples at 295 nm and recording emission from 310 nm to 450 nm. […] Contributions from the buffer and SUVs were appropriately subtracted and volume corrected fluorescence values were used to calculate the fraction of bound peptide.
Lipid binding was measured by titrating SUVs (DMPC:DMPG, 7:3, w/w) into 12.5 μM of the peptide by varying lipid to peptide ratio from 75.6 to 3.3. After each addition of lipid, emission spectrum was recorded between 310 to 450 nm using excitation at 295 nm with excitation and emission slit width of 3 nm. […]

[7] = system: 3T3 murine fibroblast cell line; type: cell-based, mouse
Procedure: The cytotoxicity of α-MSH and analogues was tested against 3T3 murine fibroblast cell line using a protocol as described previously. The cell line was propagated at 37 °C in 5% CO2 to over 75% confluence in DMEM supplemented with 10% fetal bovine serum (FBS) and antibiotics and transferred (after treatment with trypsin) to each well of a 24-well plate to a final count of 0.2 × 10^5 cells/well for 24 h. After 24 h, media was aspirated and desired concentration of peptides (50 μM) dissolved in 25% (v/v) DMEM in PBS was added to each well (in triplicate). Triplicate wells without treatment were set as control and wells with 2% Triton X-100 were used as positive control. The plate was kept for 2 h, at 37 °C in 5% CO2 incubator. After 2 h, media was removed and the cells were washed once with 1 mL PBS. In dark, 1 mL MTT (working conc. 0.1 mg/mL) was added to each well and incubated for 2 h at 37 °C. After 2 h, the formazan crystals formed were dissolved in 200 μL of DMSO and kept for 5 min in the incubator. 150 μL of this mixture was transferred to a fresh 96-well plate and absorbance was measured spectrophotometrically at 570 nm. % cytotoxicity was calculated as [(OD570 of control-OD570 of sample)/(OD570 of control)] × 100. The assay was done in triplicate on three different days.

Row | Substance | % H (% hydrophobicity based on % of acetonitrile at RP-HPLC elution) [1] [%] | Reduction in initial cell count (MSSA ATCC 29213 [2]) [Log10 CFU/mL] | Reduction in initial cell count (MRSA ATCC 33591) [Log10 CFU/mL] | Cyclic-AMP levels compared to untreated control ([3]; 37 °C, 100 μM IBMX, enzyme immunoassay, p < 0.05) | Cyclic-AMP levels compared to α-MSH ([3]; comparable at higher, lower at lower concentration) | Membrane depolarization, relative fluorescence intensity (RFI) of DiSC3(5) (MSSA ATCC 29213 [4]) | Cells retaining PI (PI positive cells) (MSSA ATCC 29213 [5]) [%] | Binding constant to bacterial mimic SUVs ([6]; 12.5 μM peptide titrated with DMPC:DMPG (7:3, w/w) SUVs, L:P 75.6 to 3.3, 10 mM TES pH 7.2, 25 °C, hyperbolic fit, one site model) | Binding constant relative to α-MSH ([6]; DMPC:DMPG (7:3, w/w) SUVs, steady-state fluorescence) | Cytotoxicity relative to growth control [7] [%]
1 | Ac-KYKMKHFRWGKPV-NH2 [KKK-MSH] | 39.9 | 4.07 ± 0.92 | 3.81 ± 0.33 | dose-dependent elevation in cyclic-AMP | comparable or lower levels of cyclic-AMP | appreciable increase in RFI | 67.6 ± 3.4 | 15,402.74 M^−1 | ~ 18 fold | –
2 | Triton X-100 | – | – | – | – | – | – | – | – | – | 83
